Reference: US7887794B2, “Lactic acid bacteria and their use in the treatment of cancer” (Bio-K Plus International, Inc., priority 2001, dated 2011)

Columns and labels:
LS 513 cells = experiment: apoptosis / cell cycle by flow cytometry with propidium iodide; format: cell-based, human; conditions: in the presence of intact (live or irradiated) bacteria; dose dependent
Method: A concentration of 5×10^4 cells per mL, with 6 mL per well, is used in order to obtain 3×10^5 cells per sample. The cells are prepared as indicated above. The different products are added to the wells, and an incubation of 48 hours is done. Following the incubation, the supernatants of the cells are collected in different 15 mL tubes and centrifuged at 1500 RPM during 5 minutes. The cellular pellets are then collected by decantation of the supernatant and put on ice. This stage consists in recuperating the cells in suspension. Afterwards, the adherent cellular sheet is washed with 0.5 mL trypsin-EDTA, then 0.2 mL trypsin-EDTA is added to each well to allow the cells to detach when they are incubated for around 8 minutes in the incubator at 37° C. The cells are suspended in 3 mL of complete RPMI 10% FCS to stop the enzymatic activity of trypsin. […] Different peaks are formed due to the differences in fluorescence existing between each phase of the cellular cycle. The more the content of intact DNA is high, the more the fluorescence is high and vice-versa. The program measures the percentage of fluorescence that the large spike forms under the corresponding spike of G0-G1, this spike represents pieces of fragmented DNA, consequence of the cleavage of DNA by different enzymes activated during apoptosis.

colon cancer cells = experiment: addition of butyrate, apoptosis of colon cancer cells in vitro; format: cell-based, human
Method: The plate of cancer cells containing 3×10^5 cells per well is incubated overnight to allow the cells to adhere. Then, the different concentrations of butyric acid (Sigma, St-Louis, USA) are added to the wells containing the adherent cells and the culture medium, the complete RPMI. After this addition, a 48 hour incubation is done in order to measure the percentage of apoptosis according to the technique described hereinafter.
A dose of 5FU (100 μg/mL) as well as different doses (2 mM and 4 mM) of butyric acid (ba) are added to the cancerous colon cells. Apoptosis is measures after a 48 hour incubation.

human colon cancer = conditions: mice; cited from earlier work

SMILES | efficacy of the anticancer agent (LS 513 cells) | apoptosis in colon cancer cells in vitro (colon cancer cells) | in vivo growth of human colon cancer (human colon cancer)
O=c1[nH]cc(F)c(=O)[nH]1 [5FU, 5-fluorouracil] | considerably increased | – | –
CCCC(=O)O [butyric acid] | – | causes apoptosis | inhibits the in vivo growth
